{
  "source": "paper PMC4904262",
  "about": "(ACS Medicinal Chemistry Letters, 2016)",
  "key": {"EGFR": {"molecular_target": "EGFR (Homo sapiens, UniProt P00533)", "conditions": "1 µM, ATP at Km"}, "[1]": {"conditions": "mouse, in vivo, iv, 0.2 mg/kg"}, "SAPK3": {"molecular_target": "SAPK3 (Homo sapiens, UniProt P53778)", "sequence (P53778 whole entry)": "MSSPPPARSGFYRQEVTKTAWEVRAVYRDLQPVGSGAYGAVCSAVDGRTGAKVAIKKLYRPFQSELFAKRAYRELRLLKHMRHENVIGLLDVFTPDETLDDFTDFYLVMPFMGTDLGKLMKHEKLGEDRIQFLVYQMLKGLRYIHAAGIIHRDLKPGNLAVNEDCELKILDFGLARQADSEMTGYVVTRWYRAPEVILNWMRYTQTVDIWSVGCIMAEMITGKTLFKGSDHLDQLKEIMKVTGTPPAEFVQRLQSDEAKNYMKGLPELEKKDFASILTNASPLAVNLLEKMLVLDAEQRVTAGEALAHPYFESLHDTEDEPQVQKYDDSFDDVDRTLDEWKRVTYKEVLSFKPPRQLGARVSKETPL", "conditions": "1 µM, ATP at Km"}, "in vitro [2]": {"assay": "in vitro", "conditions": "mouse, microsomes"}, "SGK3": {"molecular_target": "SGK3 (Homo sapiens, UniProt Q96BR1)", "sequence (Q96BR1 whole entry)": "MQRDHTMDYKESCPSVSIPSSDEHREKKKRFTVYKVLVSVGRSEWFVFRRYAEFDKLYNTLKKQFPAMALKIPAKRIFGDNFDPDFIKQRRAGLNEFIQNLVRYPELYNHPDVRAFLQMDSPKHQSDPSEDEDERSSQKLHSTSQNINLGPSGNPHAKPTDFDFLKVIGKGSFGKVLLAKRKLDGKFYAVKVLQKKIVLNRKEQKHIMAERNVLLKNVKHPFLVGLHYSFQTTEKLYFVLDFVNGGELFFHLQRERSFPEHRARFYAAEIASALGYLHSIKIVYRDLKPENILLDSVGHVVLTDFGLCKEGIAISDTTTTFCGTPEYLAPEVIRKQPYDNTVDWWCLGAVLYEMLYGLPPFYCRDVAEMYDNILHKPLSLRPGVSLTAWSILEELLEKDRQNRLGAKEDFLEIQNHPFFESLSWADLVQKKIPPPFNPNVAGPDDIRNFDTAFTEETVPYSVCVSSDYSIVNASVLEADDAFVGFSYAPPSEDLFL", "conditions": "1 µM, ATP at Km"}, "[3]": {"molecular_target": "CDK8 in the presence of cyclin C (Homo sapiens, UniProt P49336)", "assay": "biochemical", "conditions": "read-out: CDK8 residence time ± SD"}, "NEK2": {"molecular_target": "NEK2 (Homo sapiens, UniProt P51955)", "sequence (P51955 whole entry)": "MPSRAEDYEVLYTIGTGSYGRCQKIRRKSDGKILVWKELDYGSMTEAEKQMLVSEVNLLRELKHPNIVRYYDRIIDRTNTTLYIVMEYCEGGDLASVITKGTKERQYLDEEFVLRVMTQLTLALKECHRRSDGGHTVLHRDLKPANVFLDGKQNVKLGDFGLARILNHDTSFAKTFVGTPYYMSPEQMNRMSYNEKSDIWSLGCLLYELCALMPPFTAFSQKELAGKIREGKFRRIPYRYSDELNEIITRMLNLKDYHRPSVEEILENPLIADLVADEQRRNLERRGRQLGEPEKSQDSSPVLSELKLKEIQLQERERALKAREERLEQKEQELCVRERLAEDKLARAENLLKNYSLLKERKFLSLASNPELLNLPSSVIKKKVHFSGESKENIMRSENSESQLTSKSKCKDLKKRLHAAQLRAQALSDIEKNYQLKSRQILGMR", "conditions": "1 µM, ATP at Km"}, "in vitro [4]": {"assay": "in vitro", "conditions": "mouse, plasma"}, "FYN": {"molecular_target": "FYN (Homo sapiens, UniProt P06241)", "sequence (P06241 whole entry)": "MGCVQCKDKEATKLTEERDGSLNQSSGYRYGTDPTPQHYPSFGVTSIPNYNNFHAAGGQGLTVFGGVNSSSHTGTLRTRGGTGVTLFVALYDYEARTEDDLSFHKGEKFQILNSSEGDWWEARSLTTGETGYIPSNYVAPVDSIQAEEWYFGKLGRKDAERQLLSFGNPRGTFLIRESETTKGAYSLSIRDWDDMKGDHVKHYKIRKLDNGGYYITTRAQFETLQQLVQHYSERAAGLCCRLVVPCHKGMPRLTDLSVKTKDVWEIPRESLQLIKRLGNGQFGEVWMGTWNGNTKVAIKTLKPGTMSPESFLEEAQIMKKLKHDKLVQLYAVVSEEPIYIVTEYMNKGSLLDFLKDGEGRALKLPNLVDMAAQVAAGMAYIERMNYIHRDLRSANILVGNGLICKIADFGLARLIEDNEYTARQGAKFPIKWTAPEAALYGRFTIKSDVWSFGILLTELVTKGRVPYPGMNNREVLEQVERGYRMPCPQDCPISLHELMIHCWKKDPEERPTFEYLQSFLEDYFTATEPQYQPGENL", "conditions": "1 µM, ATP at Km"}, "Caco-2": {"system": "Caco-2", "conditions": "human"}, "P70S6K": {"molecular_target": "P70S6K (Homo sapiens, UniProt P23443)", "conditions": "1 µM, ATP at Km"}, "in vitro [5]": {"assay": "in vitro", "conditions": "human, microsomes"}, "GCK": {"molecular_target": "GCK (Homo sapiens, UniProt Q12851)", "sequence (Q12851 whole entry)": "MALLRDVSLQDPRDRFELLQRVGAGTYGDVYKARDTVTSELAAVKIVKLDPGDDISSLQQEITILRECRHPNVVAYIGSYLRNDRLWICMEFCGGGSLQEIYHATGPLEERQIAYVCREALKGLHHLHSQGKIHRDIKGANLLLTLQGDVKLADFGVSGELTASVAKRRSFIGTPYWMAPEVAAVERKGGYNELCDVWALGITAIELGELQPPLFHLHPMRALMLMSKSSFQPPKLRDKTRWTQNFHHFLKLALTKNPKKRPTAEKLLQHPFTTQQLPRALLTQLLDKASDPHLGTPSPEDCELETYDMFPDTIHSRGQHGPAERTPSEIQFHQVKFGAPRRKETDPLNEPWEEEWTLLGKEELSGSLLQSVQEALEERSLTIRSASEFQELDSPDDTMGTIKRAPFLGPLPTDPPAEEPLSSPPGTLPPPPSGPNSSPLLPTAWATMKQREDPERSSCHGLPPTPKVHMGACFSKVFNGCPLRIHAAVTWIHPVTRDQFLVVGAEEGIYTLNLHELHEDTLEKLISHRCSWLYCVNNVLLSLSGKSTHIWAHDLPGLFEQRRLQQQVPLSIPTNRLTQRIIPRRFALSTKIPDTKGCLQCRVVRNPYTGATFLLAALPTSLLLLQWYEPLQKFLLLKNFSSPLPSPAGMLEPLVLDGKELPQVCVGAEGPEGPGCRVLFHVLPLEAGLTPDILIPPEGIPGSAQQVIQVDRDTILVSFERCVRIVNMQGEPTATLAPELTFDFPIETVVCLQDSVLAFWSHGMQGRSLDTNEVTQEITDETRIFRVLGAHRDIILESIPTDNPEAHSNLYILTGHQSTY", "conditions": "1 µM, ATP at Km"}, "FGR": {"molecular_target": "FGR (Homo sapiens, UniProt P09769)", "sequence (P09769 whole entry)": "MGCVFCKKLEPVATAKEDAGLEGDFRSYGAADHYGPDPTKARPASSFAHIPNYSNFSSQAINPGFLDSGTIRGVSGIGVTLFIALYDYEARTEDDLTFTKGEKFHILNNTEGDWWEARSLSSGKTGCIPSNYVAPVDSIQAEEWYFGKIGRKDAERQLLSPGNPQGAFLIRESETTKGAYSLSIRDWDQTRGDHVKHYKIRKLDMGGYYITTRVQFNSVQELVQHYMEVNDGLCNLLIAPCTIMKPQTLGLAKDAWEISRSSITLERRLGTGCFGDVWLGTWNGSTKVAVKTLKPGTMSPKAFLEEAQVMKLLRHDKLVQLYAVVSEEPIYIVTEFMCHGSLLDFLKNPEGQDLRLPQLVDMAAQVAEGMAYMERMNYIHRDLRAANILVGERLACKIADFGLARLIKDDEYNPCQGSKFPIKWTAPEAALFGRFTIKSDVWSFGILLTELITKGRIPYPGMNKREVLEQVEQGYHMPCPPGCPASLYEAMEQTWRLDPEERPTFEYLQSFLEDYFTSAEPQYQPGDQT", "conditions": "1 µM, ATP at Km"}, "[6]": {"molecular_target": "CDK19 in the presence of cyclin C (Homo sapiens, UniProt Q9BWU1)", "sequence (Q9BWU1 whole entry)": "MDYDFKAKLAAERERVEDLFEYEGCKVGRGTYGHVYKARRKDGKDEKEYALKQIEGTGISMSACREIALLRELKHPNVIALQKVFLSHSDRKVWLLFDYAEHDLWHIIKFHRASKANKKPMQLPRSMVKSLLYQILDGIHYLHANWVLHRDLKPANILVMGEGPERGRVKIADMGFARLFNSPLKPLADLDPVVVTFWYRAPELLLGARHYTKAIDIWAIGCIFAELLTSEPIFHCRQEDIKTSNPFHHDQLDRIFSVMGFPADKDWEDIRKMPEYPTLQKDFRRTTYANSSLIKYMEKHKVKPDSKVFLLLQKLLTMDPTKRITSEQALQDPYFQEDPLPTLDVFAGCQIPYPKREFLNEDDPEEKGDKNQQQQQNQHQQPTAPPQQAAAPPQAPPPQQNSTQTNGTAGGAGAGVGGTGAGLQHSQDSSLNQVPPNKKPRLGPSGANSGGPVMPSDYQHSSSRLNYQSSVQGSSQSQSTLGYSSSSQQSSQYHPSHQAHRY", "sequence (P24863 whole entry partner)": "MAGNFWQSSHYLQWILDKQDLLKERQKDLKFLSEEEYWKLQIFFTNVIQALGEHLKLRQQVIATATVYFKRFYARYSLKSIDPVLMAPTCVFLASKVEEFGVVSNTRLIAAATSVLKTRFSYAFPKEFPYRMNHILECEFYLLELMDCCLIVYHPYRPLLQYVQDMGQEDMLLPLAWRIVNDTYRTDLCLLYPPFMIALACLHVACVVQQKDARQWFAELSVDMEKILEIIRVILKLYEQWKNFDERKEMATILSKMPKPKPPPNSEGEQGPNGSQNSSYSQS", "assay": "biochemical", "conditions": "read-out: CDK19 residence time ± SD"}, "[7]": {"conditions": "rat, in vivo, 0.2 mg/kg"}, "PKA": {"molecular_target": "PKA (Homo sapiens, UniProt P17612)", "conditions": "1 µM, ATP at Km"}, "CKIT": {"molecular_target": "CKIT (Homo sapiens, UniProt P10721)", "sequence (P10721 26-976)": "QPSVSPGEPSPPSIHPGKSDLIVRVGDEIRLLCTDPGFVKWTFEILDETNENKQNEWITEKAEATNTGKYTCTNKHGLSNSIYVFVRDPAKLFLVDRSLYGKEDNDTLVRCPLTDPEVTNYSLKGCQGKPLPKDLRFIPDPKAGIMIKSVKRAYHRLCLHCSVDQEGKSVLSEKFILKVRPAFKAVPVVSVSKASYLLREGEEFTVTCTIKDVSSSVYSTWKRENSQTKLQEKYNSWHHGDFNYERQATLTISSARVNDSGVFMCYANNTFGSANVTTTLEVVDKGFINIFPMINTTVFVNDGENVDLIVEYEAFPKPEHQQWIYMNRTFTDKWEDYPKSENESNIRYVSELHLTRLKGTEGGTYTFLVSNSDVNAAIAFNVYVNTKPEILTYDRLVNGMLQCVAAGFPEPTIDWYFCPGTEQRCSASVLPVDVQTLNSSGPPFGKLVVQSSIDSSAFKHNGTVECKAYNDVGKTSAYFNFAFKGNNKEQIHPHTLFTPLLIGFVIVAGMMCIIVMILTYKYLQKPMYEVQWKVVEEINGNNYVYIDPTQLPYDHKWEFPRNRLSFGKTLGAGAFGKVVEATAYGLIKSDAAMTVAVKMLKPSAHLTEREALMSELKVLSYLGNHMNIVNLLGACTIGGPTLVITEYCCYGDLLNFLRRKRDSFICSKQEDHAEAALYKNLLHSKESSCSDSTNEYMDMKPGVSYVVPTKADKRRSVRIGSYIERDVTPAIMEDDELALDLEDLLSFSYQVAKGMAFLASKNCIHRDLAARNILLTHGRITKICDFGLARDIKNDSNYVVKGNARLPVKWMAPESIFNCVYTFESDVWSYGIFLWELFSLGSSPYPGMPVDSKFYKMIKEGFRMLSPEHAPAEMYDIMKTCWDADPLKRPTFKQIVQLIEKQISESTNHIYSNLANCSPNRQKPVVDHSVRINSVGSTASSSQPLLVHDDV", "conditions": "1 µM, ATP at Km"}, "SRC(1-530)": {"molecular_target": "SRC(1-530) (Homo sapiens, UniProt P12931)", "conditions": "1 µM, ATP at Km"}, "TIE2(Y897S)": {"molecular_target": "TIE2(Y897S) (Homo sapiens, UniProt Q02763, Y897S)", "conditions": "1 µM, ATP at Km"}, "EGFR(L858R)": {"molecular_target": "EGFR(L858R) (Homo sapiens, UniProt P00533, L858R)", "conditions": "1 µM, ATP at Km"}, "CKIT(D816H)": {"molecular_target": "CKIT(D816H) (Homo sapiens, UniProt P10721, D816H)", "sequence (P10721 26-976 D816H)": "as the sequence (P10721 26-976) above, with D791H counted along it", "conditions": "1 µM, ATP at Km"}, "LCK": {"molecular_target": "LCK (Homo sapiens, UniProt P06239)", "conditions": "LCK (second listing, page 11); 1 µM; ATP at Km"}, "FGFR1(V561M)": {"molecular_target": "FGFR1(V561M) (Homo sapiens, UniProt P11362, V561M)", "conditions": "1 µM, ATP at Km"}, "PI3 KINASE (E542K/P85A)": {"molecular_target": "PI3 KINASE (E542K/P85A) (Homo sapiens, UniProt P42336, E542K)", "conditions": "PI3 KINASE (E542K/P85A) (first listing); 1 µM; ATP at Km"}, "CKIT(V560G)": {"molecular_target": "CKIT(V560G) (Homo sapiens, UniProt P10721, V560G)", "sequence (P10721 26-976 V560G)": "as the sequence (P10721 26-976) above, with V535G counted along it", "conditions": "1 µM, ATP at Km"}, "MKK4": {"molecular_target": "MKK4 (Mus musculus, UniProt P47809)", "conditions": "1 µM, ATP at Km"}, "RET(V804M)": {"molecular_target": "RET(V804M) (Homo sapiens, UniProt P07949, V804M)", "conditions": "1 µM, ATP at Km"}, "CK1(Y)": {"system": "CK1(Y)", "conditions": "1 µM, ATP at Km"}, "EGFR(T790M,L858R)": {"molecular_target": "EGFR(T790M,L858R) (Homo sapiens, UniProt P00533, L858R/T790M)", "conditions": "1 µM, ATP at Km"}, "EGFR(L861Q)": {"molecular_target": "EGFR(L861Q) (Homo sapiens, UniProt P00533, L861Q)", "conditions": "1 µM, ATP at Km"}, "cMET (D1246H)": {"molecular_target": "cMET (D1246H) (Homo sapiens, UniProt P08581, D1228H)", "conditions": "1 µM, ATP at Km"}, "ABL (Q252H)": {"molecular_target": "ABL (Q252H) (Homo sapiens, UniProt P00519, Q252H)", "conditions": "1 µM, ATP at Km"}, "cMET (Y1248C)": {"molecular_target": "cMET (Y1248C) (Homo sapiens, UniProt P08581, Y1230C)", "conditions": "1 µM, ATP at Km"}, "SRC(T341M)": {"molecular_target": "SRC(T341M) (Homo sapiens, UniProt P12931, T341M)", "conditions": "1 µM, ATP at Km"}, "CKIT(V654A)": {"molecular_target": "CKIT(V654A) (Homo sapiens, UniProt P10721, V654A)", "conditions": "1 µM, ATP at Km"}, "ABL(Y253F)": {"molecular_target": "ABL(Y253F) (Homo sapiens, UniProt P00519, Y253F)", "conditions": "1 µM, ATP at Km"}, "cMET (Y1248D)": {"molecular_target": "cMET (Y1248D) (Homo sapiens, UniProt P08581, Y1230D)", "conditions": "1 µM, ATP at Km"}, "cMET (D1246N)": {"molecular_target": "cMET (D1246N) (Homo sapiens, UniProt P08581, D1228N)", "conditions": "1 µM, ATP at Km"}, "ABL (M351T)": {"molecular_target": "ABL (M351T) (Homo sapiens, UniProt P00519, M351T)", "conditions": "1 µM, ATP at Km"}, "PI3 KINASE (P65A)": {"system": "PI3 KINASE (P65A)", "conditions": "1 µM, ATP at Km"}},
  "note": "Where two headings read alike, the source gives them in different places.",
  "data": [
    {"compound": "COC1CN(C(=O)c2ccc3c(N)ncc(-c4ccc(-c5cnn(C)c5)cc4)c3n2)C1", "note": "[Compound 51]", "values": [
      {"measurement": "percentage effect", "setting": "EGFR", "value": -45, "unit": "%"},
      {"measurement": "% in feces (iv dosing)", "setting": "[1]", "value": 31, "unit": "%"},
      {"measurement": "percentage effect", "setting": "SAPK3", "value": -11, "unit": "%"},
      {"measurement": "microsomal CLint at 1 µM", "setting": "in vitro [2]", "value": 52, "unit": "µL/min/mg"},
      {"measurement": "percentage effect", "setting": "SGK3", "value": -13, "unit": "%"},
      {"measurement": "residence time", "setting": "[3]", "value": "15 ± 2", "unit": "min"},
      {"measurement": "percentage effect", "setting": "NEK2", "value": -5, "unit": "%"},
      {"measurement": "fraction unbound", "setting": "in vitro [4]", "value": 0.038},
      {"measurement": "percentage effect", "setting": "FYN", "value": 1, "unit": "%"},
      {"measurement": "Caco-2 ER", "setting": "Caco-2", "value": 5.9},
      {"measurement": "Caco-2 PappA-B", "setting": "Caco-2", "value": "28.6 × 10^–6 cm/s"},
      {"measurement": "percentage effect", "setting": "P70S6K", "value": -25, "unit": "%"},
      {"measurement": "microsomal CLint at 1 µM", "setting": "in vitro [5]", "value": 61, "unit": "µL/min/mg"},
      {"measurement": "percentage effect", "setting": "GCK", "value": -26, "unit": "%"},
      {"measurement": "percentage effect", "setting": "FGR", "value": 19, "unit": "%"},
      {"measurement": "residence time", "setting": "[6]", "value": "31 ± 3", "unit": "min"},
      {"measurement": "% in feces (iv dosing)", "setting": "[7]", "value": 36, "unit": "%"},
      {"measurement": "percentage effect", "setting": "PKA", "value": -1, "unit": "%"},
      {"measurement": "percentage effect", "setting": "CKIT", "value": 1, "unit": "%"}
    ]},
    {"compound": "COC1CN(C(=O)c2ccc3c(N)ncc(-c4ccc(-c5cnn(C)c5)cc4)c3c2)C1", "note": "[Compound 59]", "values": [
      {"measurement": "percentage effect", "setting": "SRC(1-530)", "value": -3, "unit": "%"},
      {"measurement": "percentage effect", "setting": "EGFR", "value": 14, "unit": "%"},
      {"measurement": "percentage effect", "setting": "TIE2(Y897S)", "value": -6, "unit": "%"},
      {"measurement": "percentage effect", "setting": "EGFR(L858R)", "value": -15, "unit": "%"},
      {"measurement": "percentage effect", "setting": "SAPK3", "value": -11, "unit": "%"},
      {"measurement": "percentage effect", "setting": "CKIT(D816H)", "value": -1, "unit": "%"},
      {"measurement": "percentage effect", "setting": "LCK", "value": 4, "unit": "%"},
      {"measurement": "percentage effect", "setting": "FGFR1(V561M)", "value": -6, "unit": "%"},
      {"measurement": "percentage effect", "setting": "PI3 KINASE (E542K/P85A)", "value": -3, "unit": "%"},
      {"measurement": "percentage effect", "setting": "SGK3", "value": 9, "unit": "%"},
      {"measurement": "percentage effect", "setting": "NEK2", "value": -9, "unit": "%"},
      {"measurement": "percentage effect", "setting": "CKIT(V560G)", "value": -21, "unit": "%"},
      {"measurement": "percentage effect", "setting": "MKK4", "value": 3, "unit": "%"},
      {"measurement": "percentage effect", "setting": "FYN", "value": 8, "unit": "%"},
      {"measurement": "percentage effect", "setting": "RET(V804M)", "value": 7, "unit": "%"},
      {"measurement": "percentage effect", "setting": "CK1(Y)", "value": 4, "unit": "%"},
      {"measurement": "percentage effect", "setting": "EGFR(T790M,L858R)", "value": -2, "unit": "%"},
      {"measurement": "percentage effect", "setting": "EGFR(L861Q)", "value": -9, "unit": "%"},
      {"measurement": "percentage effect", "setting": "cMET (D1246H)", "value": 1, "unit": "%"},
      {"measurement": "percentage effect", "setting": "ABL (Q252H)", "value": 9, "unit": "%"},
      {"measurement": "percentage effect", "setting": "cMET (Y1248C)", "value": -19, "unit": "%"},
      {"measurement": "percentage effect", "setting": "GCK", "value": 1, "unit": "%"},
      {"measurement": "percentage effect", "setting": "FGR", "value": 7, "unit": "%"},
      {"measurement": "percentage effect", "setting": "SRC(T341M)", "value": -18, "unit": "%"},
      {"measurement": "percentage effect", "setting": "CKIT(V654A)", "value": 6, "unit": "%"},
      {"measurement": "percentage effect", "setting": "ABL(Y253F)", "value": -6, "unit": "%"},
      {"measurement": "percentage effect", "setting": "cMET (Y1248D)", "value": 19, "unit": "%"},
      {"measurement": "percentage effect", "setting": "cMET (D1246N)", "value": 3, "unit": "%"},
      {"measurement": "percentage effect", "setting": "ABL (M351T)", "value": 2, "unit": "%"},
      {"measurement": "percentage effect", "setting": "PI3 KINASE (P65A)", "value": -4, "unit": "%"},
      {"measurement": "percentage effect", "setting": "CKIT", "value": -3, "unit": "%"}
    ]}
  ]
}
